Data taken from patent publication US12187706B2, “NLRP3 modulators” (INNATE TUMOR IMMUNITY, INC., priority 2019, dated 2025).

Molecular target: T1, human TLR8 (Homo sapiens, UniProt Q9NR97)
T1 construct: host or cells: human HEK-Blue cells with NF-kB/AP1-inducible SEAP reporter
T1 sequence (Q9NR97 27-1041): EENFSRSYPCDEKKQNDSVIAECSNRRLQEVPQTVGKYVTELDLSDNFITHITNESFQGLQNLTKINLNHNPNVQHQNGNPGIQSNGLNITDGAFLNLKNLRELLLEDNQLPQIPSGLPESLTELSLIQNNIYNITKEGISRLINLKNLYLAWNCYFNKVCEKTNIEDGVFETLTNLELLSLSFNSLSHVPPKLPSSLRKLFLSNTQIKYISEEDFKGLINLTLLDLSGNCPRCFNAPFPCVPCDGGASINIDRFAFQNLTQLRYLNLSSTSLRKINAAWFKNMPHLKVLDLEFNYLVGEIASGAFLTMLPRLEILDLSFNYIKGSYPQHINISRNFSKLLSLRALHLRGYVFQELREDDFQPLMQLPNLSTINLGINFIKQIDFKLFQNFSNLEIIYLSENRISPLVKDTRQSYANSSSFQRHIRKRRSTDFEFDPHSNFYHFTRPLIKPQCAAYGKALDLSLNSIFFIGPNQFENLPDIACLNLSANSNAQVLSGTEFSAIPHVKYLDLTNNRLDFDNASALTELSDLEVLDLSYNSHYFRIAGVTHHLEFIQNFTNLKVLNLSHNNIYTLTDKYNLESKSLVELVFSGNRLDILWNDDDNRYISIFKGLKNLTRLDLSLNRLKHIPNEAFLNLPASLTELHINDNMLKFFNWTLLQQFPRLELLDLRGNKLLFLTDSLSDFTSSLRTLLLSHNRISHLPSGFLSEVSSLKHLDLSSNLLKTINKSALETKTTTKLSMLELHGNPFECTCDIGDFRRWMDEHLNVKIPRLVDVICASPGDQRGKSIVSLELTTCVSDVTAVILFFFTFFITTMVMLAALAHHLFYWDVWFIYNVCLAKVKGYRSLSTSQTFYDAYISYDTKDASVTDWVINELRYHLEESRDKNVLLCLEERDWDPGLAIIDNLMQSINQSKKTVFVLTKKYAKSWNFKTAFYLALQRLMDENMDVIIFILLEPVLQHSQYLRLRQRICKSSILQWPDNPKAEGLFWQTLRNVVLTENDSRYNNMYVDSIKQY
Test: In vitro human TLR8 reporter assay (HEK-Blue, NF-kB/AP1-inducible SEAP)
Type: cell-based
Details: at 50 μM
Procedure: In Vitro Human TLR7 and TLR8 Binding Reporter Assays Logarithmically-growing human HEK-Blue cells co-expressing a TLR7 or TLR8 gene and a NF-kB/AP1-inducible SEAP (secreted embryonic alkaline phosphatase; […] Cellular SEAP production is measured using an Envision plate reader instrument thirty minutes after adding freshly-made Quanti-Blue reagent (prepared by following manufacturer instructions; Invivogen, San Diego, CA) to the HEK-Blue TLR Nf-kB-SEAP cell reactions. All EC50 values (half-maximal effective concentration) are determined using proprietary data analysis software.

Nc1nc(OCCO)c2ccc(-c3ccn[nH]3)cc2n1 [Example 4, 2-((2-amino-7-(1H-pyrazol-3-yl)quinazolin-4-yl)oxy)ethan-1-ol]
TLR8 agonist activity: < 50%
